Ends that are not written are not given here. Peptide text beside a SMILES is read from it.
Key:
CRF1R = target: T1, CRF1R (Homo sapiens, UniProt P34998); experiment: CRF1R agonist activation (EC50 / Emax), called comparative CRF binding; type: cell-based; settings: for Emax: read-out: CRF1R Emax; for EC50: read-out: CRF1R EC50
T1 sequence (P34998 24-415): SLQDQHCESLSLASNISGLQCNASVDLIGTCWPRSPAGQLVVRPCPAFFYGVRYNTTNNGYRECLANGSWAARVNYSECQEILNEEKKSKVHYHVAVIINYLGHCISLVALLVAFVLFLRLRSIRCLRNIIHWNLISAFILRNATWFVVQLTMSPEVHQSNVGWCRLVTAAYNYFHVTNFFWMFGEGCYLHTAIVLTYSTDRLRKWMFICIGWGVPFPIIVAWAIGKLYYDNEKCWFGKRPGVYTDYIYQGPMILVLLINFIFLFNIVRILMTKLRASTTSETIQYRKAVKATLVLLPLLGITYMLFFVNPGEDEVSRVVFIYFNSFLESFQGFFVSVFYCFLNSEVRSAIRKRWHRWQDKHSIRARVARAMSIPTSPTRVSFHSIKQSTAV
In short: (§1)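 Agonism at each human CRF receptor subtype is inferred from increased cAMP relative to vehicle, using cells expressing that subtype and either lysate cAMP measurement or a cAMP response element reporter.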

CRF2R = target: T2, CRF2R (Homo sapiens, UniProt Q13324); experiment: CRF2R agonist activation (EC50 / Emax), called comparative CRF binding; type: cell-based; settings: for Emax: read-out: CRF2R Emax; for EC50: read-out: CRF2R EC50
T2 sequence (Q13324 1-411): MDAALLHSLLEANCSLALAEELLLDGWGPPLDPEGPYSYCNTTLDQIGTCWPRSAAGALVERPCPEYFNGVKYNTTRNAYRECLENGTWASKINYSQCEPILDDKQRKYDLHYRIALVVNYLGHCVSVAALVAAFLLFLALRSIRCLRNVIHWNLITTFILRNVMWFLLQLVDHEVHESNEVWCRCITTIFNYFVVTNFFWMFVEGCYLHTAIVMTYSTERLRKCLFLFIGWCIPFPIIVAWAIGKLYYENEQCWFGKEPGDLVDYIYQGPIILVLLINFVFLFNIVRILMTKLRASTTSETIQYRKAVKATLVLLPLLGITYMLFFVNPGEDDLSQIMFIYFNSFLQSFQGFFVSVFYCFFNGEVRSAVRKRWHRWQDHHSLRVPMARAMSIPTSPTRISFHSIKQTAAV
In short: as §1

Work on `CC[C@H](C)[C@H](N)C(=O)N[C@H](C(=O)N[C@@H](CC(C)C)C(=O)N[C@@H](CO)C(=O)N[C@@H](CC(C)C)C(=O)N[C@@H](CC(=O)O)C(=O)N[C@H](C(=O)N1CCC[C@H]1C(=O)N[C@H](C(=O)NCC(=O)N[C@@H](CC(C)C)C(=O)N[C@@H](CC(C)C)C(=O)N[C@@H](CCC(N)=O)C(=O)N[C@H](C(=O)N[C@@H](CC(C)C)C(=O)N[C@@H](CC(C)C)C(=O)N[C@@H](CCC(=O)O)C(=O)N[C@@H](CCC(N)=O)C(=O)N[C@@H](CCC(=O)O)C(=O)N[C@@H](CCCNC(=N)N)C(=O)N[C@@H](CCC(N)=O)C(=O)N[C@@H](CCCNC(=N)N)C(=O)N[C@@H](C)C(=O)N[C@@H](C)C(=O)N[C@@H](CCCNC(=N)N)C(=O)N[C@@H](CCC(=O)O)C(=O)N[C@@H](CCC(N)=O)C(=O)N[C@@H](C)C(=O)N[C@H](C(=O)N[C@H](C(=O)N[C@@H](CC(N)=O)C(=O)N[C@@H](C)C(=O)N[C@@H](CCCNC(=N)N)C(=O)N[C@H](C(=O)N[C@@H](CC(C)C)C(=O)N[C@@H](C)C(=O)N[C@@H](CCCNC(=N)N)C(=O)N[C@H](C(N)=O)C(C)C)[C@@H](C)CC)[C@@H](C)O)[C@@H](C)O)[C@@H](C)CC)[C@@H](C)CC)C(C)C)C(C)C` [compound 111] (H-IVLSLDVPIGLLQILLEQERQRAAREQATTNARILARV-NH2; N-terminus assumed) yielded an Emax (CRF1R) of 9% and an Emax (CRF2R) of 99%.
In the case of `CC[C@H](C)[C@H](N)C(=O)N[C@H](C(=O)N[C@@H](CC(C)C)C(=O)N[C@@H](CO)C(=O)N[C@@H](CC(C)C)C(=O)N[C@@H](CC(=O)O)C(=O)N[C@H](C(=O)N1CCC[C@H]1C(=O)N[C@H](C(=O)NCC(=O)N[C@@H](CC(C)C)C(=O)N[C@@H](CC(C)C)C(=O)N[C@@H](CCC(N)=O)C(=O)N[C@H](C(=O)N[C@@H](CC(C)C)C(=O)N[C@@H](CC(C)C)C(=O)N[C@@H](CCC(=O)O)C(=O)N[C@@H](CCC(N)=O)C(=O)N[C@@H](CCC(=O)O)C(=O)N[C@@H](CCCNC(=N)N)C(=O)N[C@@H](C)C(=O)N[C@@H](CCC(=O)O)C(=O)N[C@@H](C)C(=O)N[C@@H](C)C(=O)N[C@@H](CCCNC(=N)N)C(=O)N[C@@H](CCC(=O)O)C(=O)N[C@@H](CCC(N)=O)C(=O)N[C@@H](C)C(=O)N[C@H](C(=O)N[C@H](C(=O)N[C@@H](CC(N)=O)C(=O)N[C@@H](C)C(=O)N[C@@H](CCCNC(=N)N)C(=O)N[C@H](C(=O)N[C@@H](CC(C)C)C(=O)N[C@@H](C)C(=O)N[C@@H](CCCNC(=N)N)C(=O)N[C@H](C(N)=O)C(C)C)[C@@H](C)CC)[C@@H](C)O)[C@@H](C)O)[C@@H](C)CC)[C@@H](C)CC)C(C)C)C(C)C` [compound 113] (H-IVLSLDVPIGLLQILLEQERAEAAREQATTNARILARV-NH2; N-terminus assumed), the EC50 (CRF1R) is reported as > 100 nM, the Emax (CRF1R) is reported as 4% and the EC50 (CRF2R) is reported as 11.3 nM. The Emax (CRF2R) was 98%.
`CC[C@H](C)[C@H](N)C(=O)N[C@H](C(=O)N[C@@H](CC(C)C)C(=O)N[C@@H](CO)C(=O)N[C@@H](CC(C)C)C(=O)N[C@@H](CC(=O)O)C(=O)N[C@H](C(=O)N1CCC[C@H]1C(=O)N[C@H](C(=O)NCC(=O)N[C@@H](CC(C)C)C(=O)N[C@@H](CC(C)C)C(=O)N[C@@H](CCC(N)=O)C(=O)N[C@H](C(=O)N[C@@H](CC(C)C)C(=O)N[C@@H](CC(C)C)C(=O)N[C@@H](CCC(=O)O)C(=O)N[C@@H](CCC(N)=O)C(=O)N[C@@H](C)C(=O)N[C@@H](CCCNC(=N)N)C(=O)N[C@@H](CCC(N)=O)C(=O)N[C@@H](CCC(=O)O)C(=O)N[C@@H](C)C(=O)N[C@@H](C)C(=O)N[C@@H](CCCNC(=N)N)C(=O)N[C@@H](CCC(=O)O)C(=O)N[C@@H](CCC(N)=O)C(=O)N[C@@H](C)C(=O)N[C@H](C(=O)N[C@H](C(=O)N[C@@H](CC(N)=O)C(=O)N[C@@H](C)C(=O)N[C@@H](CCCNC(=N)N)C(=O)N[C@H](C(=O)N[C@@H](CC(C)C)C(=O)N[C@@H](C)C(=O)N[C@@H](CCCNC(=N)N)C(=O)N[C@H](C(N)=O)C(C)C)[C@@H](C)CC)[C@@H](C)O)[C@@H](C)O)[C@@H](C)CC)[C@@H](C)CC)C(C)C)C(C)C` [compound 123] (H-IVLSLDVPIGLLQILLEQARQEAAREQATTNARILARV-NH2; N-terminus assumed) was tested, and the Emax (CRF1R) was 9.6% and the Emax (CRF2R) was 93.8%.
Compound “NDDPPISIDLPQYLLRNMIEMARIENEREQAGLNAKYLAEV-NH2 [compound 265]” has an Emax (CRF1R) of 9.3% and an Emax (CRF2R) of 23.4%.
`CC[C@H](C)[C@H](NC(=O)[C@H](CCCNC(=N)N)NC(=O)[C@H](C)NC(=O)[C@H](CC(N)=O)NC(=O)[C@H](CCC(N)=O)NC(=O)[C@H](CCC(=O)O)NC(=O)[C@H](C)NC(=O)[C@H](CCCNC(=N)N)NC(=O)[C@H](CCC(=O)O)NC(=O)[C@H](CCCNC(=N)N)NC(=O)[C@H](CCC(N)=O)NC(=O)[C@H](CO)NC(=O)[C@H](CCC(N)=O)NC(=O)[C@@H](NC(=O)[C@H](CCCCN)NC(=O)[C@H](CCC(=O)O)NC(=O)[C@H](CC(C)C)NC(=O)[C@H](CCC(=O)O)NC(=O)[C@H](CC(C)C)NC(=O)[C@H](CC(C)C)NC(=O)[C@@H](NC(=O)[C@H](CCCNC(=N)N)NC(=O)[C@H](CC(C)C)NC(=O)[C@H](CC(C)C)NC(=O)[C@H](CC(C)C)NC(=O)[C@H](CC(C)C)NC(=O)[C@@H]1CCCN1C(=O)[C@H](CC(C)C)NC(=O)[C@H](CC(=O)O)NC(=O)[C@@H](NC(=O)[C@H](CO)NC(=O)[C@H](CC(C)C)NC(=O)[C@H](CO)NC(=O)[C@@H]1CCCN1C(=O)[C@H](CC(N)=O)NC(=O)[C@@H](N)CC(=O)O)[C@@H](C)CC)[C@@H](C)O)[C@@H](C)O)C(=O)N[C@@H](Cc1ccccc1)C(=O)N[C@@H](C)C(=O)N[C@@H](CCCNC(=N)N)C(=O)N[C@H](C(N)=O)C(C)C` [compound 341] (H-DNPSLSIDLPLLLLRTLLELEKTQSQRERAEQNARIFARV-NH2; N-terminus assumed) gave an Emax (CRF1R) of 82.3% and an Emax (CRF2R) of 95.5%.
Work on `CC[C@H](C)[C@H](N)C(=O)N[C@H](C(=O)N[C@@H](CC(C)C)C(=O)N[C@@H](CO)C(=O)N[C@@H](CC(C)C)C(=O)N[C@@H](CC(=O)O)C(=O)N[C@H](C(=O)N1CCC[C@H]1C(=O)N[C@H](C(=O)NCC(=O)N[C@@H](CC(C)C)C(=O)N[C@@H](CC(C)C)C(=O)N[C@@H](CCC(N)=O)C(=O)N[C@H](C(=O)N[C@@H](CC(C)C)C(=O)N[C@@H](CC(C)C)C(=O)N[C@@H](CCC(=O)O)C(=O)N[C@@H](CCC(N)=O)C(=O)N[C@@H](CCC(=O)O)C(=O)N[C@@H](CCCCN)C(=O)N[C@@H](CCC(N)=O)C(=O)N[C@@H](CCC(=O)O)C(=O)N[C@@H](CCCCN)C(=O)N[C@@H](CCC(=O)O)C(=O)N[C@@H](CCCCN)C(=O)N[C@@H](CCC(N)=O)C(=O)N[C@@H](CCC(N)=O)C(=O)N[C@@H](C)C(=O)N[C@H](C(=O)N[C@H](C(=O)N[C@@H](CC(N)=O)C(=O)N[C@@H](C)C(=O)N[C@@H](CCCNC(=N)N)C(=O)N[C@H](C(=O)N[C@@H](CC(C)C)C(=O)N[C@@H](C)C(=O)N[C@@H](CCCNC(=N)N)C(=O)N[C@H](C(N)=O)C(C)C)[C@@H](C)CC)[C@@H](C)O)[C@@H](C)O)[C@@H](C)CC)[C@@H](C)CC)C(C)C)C(C)C` [compound 167] (H-IVLSLDVPIGLLQILLEQEKQEKEKQQATTNARILARV-NH2; N-terminus assumed) yielded an Emax (CRF1R) of 15% and an Emax (CRF2R) of 100%.
For `CC[C@H](C)[C@H](NC(=O)[C@H](CCCNC(=N)N)NC(=O)[C@H](C)NC(=O)[C@H](CC(N)=O)NC(=O)[C@H](CCC(N)=O)NC(=O)[C@H](CCC(=O)O)NC(=O)[C@H](C)NC(=O)[C@H](CCCNC(=N)N)NC(=O)[C@H](CCC(=O)O)NC(=O)[C@H](CCCNC(=N)N)NC(=O)[C@H](CCC(N)=O)NC(=O)[C@H](CO)NC(=O)[C@H](CCC(N)=O)NC(=O)[C@@H](NC(=O)[C@H](CCCCN)NC(=O)[C@H](CCC(=O)O)NC(=O)[C@H](CC(C)C)NC(=O)[C@H](CCC(=O)O)NC(=O)[C@H](CC(C)C)NC(=O)[C@H](CC(C)C)NC(=O)[C@@H](NC(=O)[C@H](CCCNC(=N)N)NC(=O)[C@H](CC(C)C)NC(=O)[C@H](CC(C)C)NC(=O)[C@H](Cc1ccccc1)NC(=O)[C@H](CC(C)C)NC(=O)[C@@H]1CCCN1C(=O)[C@H](CC(C)C)NC(=O)[C@H](CC(=O)O)NC(=O)[C@@H](NC(=O)[C@H](CO)NC(=O)[C@H](CC(C)C)NC(=O)[C@H](CO)NC(=O)[C@@H]1CCCN1C(=O)[C@H](CC(N)=O)NC(=O)[C@@H](N)CC(=O)O)[C@@H](C)CC)[C@@H](C)O)[C@@H](C)O)C(=O)N[C@@H](Cc1ccccc1)C(=O)N[C@@H](C)C(=O)N[C@@H](CCCNC(=N)N)C(=O)N[C@H](C(N)=O)C(C)C` [compound 334] (H-DNPSLSIDLPLFLLRTLLELEKTQSQRERAEQNARIFARV-NH2; N-terminus assumed), the EC50 (CRF1R) was ≥ 1000 nM, the Emax (CRF1R) was 82.6% and the EC50 (CRF2R) was 13.2 nM. The Emax (CRF2R) was 93.5%.
In the case of “NDDPPISIDLPLQLLRNMIEMARIENEREQAGLNAKYLAEV-NH2 [compound 270]”, the Emax (CRF1R) is reported as 7.85% and the Emax (CRF2R) is reported as 19.3%.
